Results taken from the Deep4Chem optical property database.
One block for each compound: values may come before it.

Experiment: solvent given as SMILES
[1] = in O=P(c1ccccc1)(c1ccccc1)c1ccccc1Oc1ccccc1P(=O)(c1ccccc1)c1ccccc1

SMILES: COc1ccc(C2=C3C=CC(C)=[N+]3[B-](F)(F)n3c(C)ccc32)cc1
- fluorescence lifetime (in C1CCCCC1): 2.87 ns
- fluorescence lifetime (in CC#N): 1.6 ns
- fluorescence lifetime (in CCOC(C)=O): 2.24 ns
- fluorescence lifetime (in CO): 1.87 ns
- fluorescence lifetime (in Cc1ccccc1): 3.35 ns
- fluorescence lifetime (in ClC(Cl)Cl): 3.28 ns

SMILES: Cc1ccc(-c2cc(-c3ccc(N(C)C)cc3)c3c(N)nc(N4CCCC4)c(C#N)c3n2)cc1
- fluorescence lifetime (in CC#N): 7.3 ns
- fluorescence lifetime (in CC(C)=O): 10.3 ns
- fluorescence lifetime (in CC(C)O): 11.2 ns
- fluorescence lifetime (in CO): 3.6 ns
- fluorescence lifetime (in ClC(Cl)Cl): 11.5 ns
- fluorescence lifetime (in ClCCl): 12.6 ns
- fluorescence lifetime (in c1ccccc1): 10.7 ns

SMILES: CCN1\C(=C/C=C/C=C/C2=[N+](CC)c3ccc4ccccc4c3C2(C)C)C(C)(C)c2c1ccc1ccccc21
- fluorescence lifetime (in C1CCOC1): 1.11 ns
- fluorescence lifetime (in CC#N): 0.85 ns
- fluorescence lifetime (in CC(C)=O): 0.96 ns
- fluorescence lifetime (in CCO): 0.93 ns
- fluorescence lifetime (in CN(C)C=O): 1.19 ns
- fluorescence lifetime (in CO): 0.76 ns
- fluorescence lifetime (in CS(C)=O): 1.31 ns
- fluorescence lifetime (in ClCCl): 1.3 ns

SMILES: NNC(=O)NNN1C(=O)c2cc(S(=O)(=O)[O-])cc3c(N)c(S(=O)(=O)[O-])cc(c23)C1=O
- fluorescence lifetime (in C1COCCO1): 3.4 ns
- fluorescence lifetime (in CC#N): 10.7 ns
- fluorescence lifetime (in CC(C)=O): 4.6 ns
- fluorescence lifetime (in CC(C)O): 9.6 ns
- fluorescence lifetime (in CCCCCCCCO): 8.8 ns
- fluorescence lifetime (in CCO): 9.2 ns
- fluorescence lifetime (in CCOC(C)=O): 2.5 ns
- fluorescence lifetime (in CO): 9.5 ns
- fluorescence lifetime (in CS(C)=O): 10.7 ns
- fluorescence lifetime (in O): 5.1 ns
- fluorescence lifetime (in OCCO): 7.9 ns
- fluorescence lifetime (in c1ccncc1): 6.3 ns

SMILES: COc1ccc2c(c1)c1cc(OC)ccc1n2-c1ccc(S(=O)(=O)c2ccc(-n3c4ccc(OC)cc4c4cc(OC)ccc43)cc2)cc1
- fluorescence lifetime (in Cc1ccccc1): 11 ns

SMILES: CC1=[N+]2C(=C(c3ccc(C(=C(c4ccccc4)c4ccccc4)c4ccccc4)cc3)c3ccc(C)n3[B-]2(F)F)C=C1
- fluorescence lifetime (in C1CCOC1): 1.13 ns

SMILES: Oc1ccc(Br)cc1-c1nc2c(c3c1-c1ccccc1CC3)-c1ccccc1CC2
- fluorescence lifetime (in ClCCl): 1.94 ns

SMILES: CC1=[N+]2C(=C(NCc3ccccc3)c3ccc(C)n3[B-]2(F)F)C=C1c1cc2n(c1)[B-](F)(F)[N+]1=CC=CC1=C2c1c(C)cc(C)cc1C
- fluorescence lifetime (in C1CCCCC1): 2.19 ns
- fluorescence lifetime (in CCOC(C)=O): 0.54 ns

SMILES: CCOc1cc2c(cc1/C=C/C1=CC(=C(C#N)C#N)CC(C)(C)C1)c1ccccc1n2CC
- fluorescence lifetime (in C1CCOC1): 4.47 ns
- fluorescence lifetime (in CC#N): 3.81 ns
- fluorescence lifetime (in CCO): 4.28 ns
- fluorescence lifetime (in CCOC(C)=O): 7.08 ns
- fluorescence lifetime (in CN(C)C=O): 4.01 ns
- fluorescence lifetime (in CS(C)=O): 4.94 ns
- fluorescence lifetime (in Cc1ccccc1): 3.84 ns
- fluorescence lifetime (in ClC(Cl)Cl): 4.37 ns
- fluorescence lifetime (in ClCCl): 6.24 ns

SMILES: c1ccc(-c2nc(-c3ccccc3)nc(-c3cc(-n4c5ccccc5c5ncccc54)c(-n4c5ccccc5c5ccccc54)c(-n4c5ccccc5c5ncccc54)c3)n2)cc1
- fluorescence lifetime [1]: 6 ns

SMILES: CC(C)(C)C#Cc1cc2c(C#CC(C)(C)C)c(C#CC(C)(C)C)c3cc(C#CC(C)(C)C)cc4c(C#CC(C)(C)C)c(C#CC(C)(C)C)c(c1)c2c34
- fluorescence lifetime (in ClCCl): 22.3 ns

SMILES: CC1(C)c2ccccc2N(c2ccc(-c3ccc4c(c3)C(=O)c3ccc(-c5ccc(N6c7ccccc7C(C)(C)c7ccccc76)cc5)cc3C4=O)cc2)c2ccccc21
- fluorescence lifetime (in Cc1ccccc1): 4.2 ns
- fluorescence lifetime (in c1ccc2c(c1)c1ccccc1n2-c1ccc(-c2ccc(-n3c4ccccc4c4ccccc43)cc2)cc1): 41 ns

SMILES: CCCCc1cc(CCCC)c2ccc3c(CCCC)cc(CCCC)c4ccc1c2c43
- fluorescence lifetime (in CCCCCC): 65.8 ns
- fluorescence lifetime (in CO): 75 ns
- fluorescence lifetime (in ClCCl): 56.7 ns

SMILES: Cc1ccc(S(=O)(=O)/N=c2\oc3cccc4c5c(-c6ccccc6)oc6cccc(c(c2-c2ccccc2)c34)c65)cc1
- fluorescence lifetime (in ClC(Cl)Cl): 3.4 ns

SMILES: CC(C)(C)c1ccc2c(c1)c1cc(C(C)(C)C)ccc1n2-c1cc(C(=O)c2ccncc2)cc(-n2c3ccc(C(C)(C)C)cc3c3cc(C(C)(C)C)ccc32)c1
- fluorescence lifetime (in c1cc(-c2cccc(-n3c4ccccc4c4ccccc43)c2)cc(-n2c3ccccc3c3ccccc32)c1): 28.1 ns

SMILES: c12c3c4c5c1c1c6c7c2c2c8c3c3c9c4c4c%10c5c5c1c1c6c6c%11c%12c%13c%14c%15c%16c%17c%14c%14c%18c%13c%11c1c1c5c%10c5c(c%14c%10c%17c%11c%13c%16c%14c%16c%15c%12c%12c%16c(c2c7c%126)c2c8c3c(c%13c%142)c2c9c4c5c%10c%112)c%181
- fluorescence lifetime (in CC1CCCCC1): 0.65 ns

SMILES: CC(C)[Si]1(C(C)C)c2ccccc2-c2ccc(N(C)C)cc21
- fluorescence lifetime (in C1CCCCC1): 6.5 ns
- fluorescence lifetime (in ClCCl): 4 ns

SMILES: CC(C)(C)c1ccc2c(c1)c1cc3c4cc(C(C)(C)C)ccc4c4c5c6ccc(C(C)(C)C)cc6c6cc7c8cc(C(C)(C)C)ccc8c8c2c1c(c34)c(c78)c65
- fluorescence lifetime (in CCCCCC): 0.61 ns
- fluorescence lifetime (in CCOCC): 0.618 ns
- fluorescence lifetime (in Cc1ccccc1): 0.606 ns

SMILES: CCCCCC(=O)c1c2c(c(C(=O)CCCCC)c3c1OC1(CCCC1)O3)OC1(CCCC1)O2
- fluorescence lifetime (in CC#N): 20.3 ns
- fluorescence lifetime (in CCCCCC): 15.3 ns
- fluorescence lifetime (in CCO): 11.6 ns
- fluorescence lifetime (in CO): 5.9 ns
- fluorescence lifetime (in ClCCl): 24.4 ns

SMILES: CN(C)c1ccc(/C=C/c2cc[n+](CCCOCC(COCCC[n+]3ccc(/C=C/c4ccc(N(C)C)cc4)cc3)(COCCC[n+]3ccc(/C=C/c4ccc(N(C)C)cc4)cc3)COCCC[n+]3ccc(/C=C/c4ccc(N(C)C)cc4)cc3)cc2)cc1
- fluorescence lifetime (in CCCCCCCCO): 0.48 ns
- fluorescence lifetime (in CCCO): 0.18 ns
- fluorescence lifetime (in CCO): 0.11 ns
- fluorescence lifetime (in CO): 0.09 ns
- fluorescence lifetime (in ClC(Cl)Cl): 0.46 ns
- fluorescence lifetime (in ClCCl): 0.31 ns

SMILES: F[B-]1(F)OC(c2ccc(C(F)(F)F)cc2)=Cc2c3ccccc3cc[n+]21
- fluorescence lifetime (in ClC(Cl)Cl): 0.14 ns

SMILES: c1ccc(-c2cc(-c3ccc(N4c5ccccc5C(c5ccccc5)(c5ccccc5)c5ccccc54)cc3)nc(-c3ccccc3)n2)cc1
- fluorescence lifetime [1]: 8.02 ns

SMILES: N#Cc1c(-n2c3ccc(Br)cc3c3cc(Br)ccc32)c(C#N)c(-n2c3ccc(Br)cc3c3cc(Br)ccc32)c(-n2c3ccc(Br)cc3c3cc(Br)ccc32)c1-n1c2ccc(Br)cc2c2cc(Br)ccc21
- fluorescence lifetime (in Cc1ccccc1): 0.4 ns

SMILES: CC1=[N+]2C(=C(c3ccc(C#N)cc3)c3ccc(C)n3[B-]2(F)F)C=C1
- fluorescence lifetime (in Cc1ccccc1): 0.55 ns

Further lines, results first:

- fluorescence lifetime (in CC#N): 2.25 ns
SMILES: CCN(CC)c1ccc2cc(/C=C/c3ccccc3)c(=O)oc2c1

- fluorescence lifetime (in CC#N): 2.1 ns
SMILES: Cc1ccc(-[c+]2c3ccccc3oc3ccccc32)cc1

- fluorescence lifetime (in ClCCl): 6.15 ns
SMILES: CCCCCCCCCCCCN1C(=O)c2c(c3ccc4cc(-c5ccc(Cl)cc5)c(OC)cc4c3c3c2ccc2cc(-c4ccc(Cl)cc4)c(OC)cc23)C1=O

- fluorescence lifetime (in C1CCCCC1): 4.2 ns
SMILES: C[Si](C)(C)C#Cc1ccc2c3cccc4cccc(c5cccc1c52)c43

- fluorescence lifetime (in CC#N): 0.4 ns
- fluorescence lifetime (in ClCCCl): 0.32 ns
SMILES: Cc1ccc2nc3c(=O)[nH]c(=O)[nH]c3nc2c1

- fluorescence lifetime (in c1cc(-n2c3ccccc3c3ccccc32)cc(-n2c3ccccc3c3ccccc32)c1): 5.9 ns
SMILES: COc1ccc(-c2ccc3c(c2)c2cc(-c4ccc(OC)cc4)ccc2n3-c2ccc(C(=O)c3ccc4sc5ccccc5c4c3)cn2)cc1

- fluorescence lifetime (in CO): 0.83 ns
- fluorescence lifetime (in ClC(Cl)Cl): 4.41 ns
SMILES: CC[n+]1c(C=C2C(=O)C(C=C3Sc4cc(Cl)ccc4N3C)=C2[O-])[se]c2ccccc21

- fluorescence lifetime (in CCO): 2.72 ns
SMILES: CN(C)c1ccc(-c2ccc(C#N)s2)s1

- fluorescence lifetime (in CC#N): 1.16 ns
SMILES: COc1cc2cc(C#Cc3ccc(/C=C(\C#N)C(=O)O)cc3)c(=O)oc2cc1OC

- fluorescence lifetime (in ClCCl): 9 ns
SMILES: COc1ccc(N(c2ccccc2)c2ccc3ccc4c(N(c5ccccc5)c5ccc(OC)cc5)ccc5ccc2c3c54)cc1

- fluorescence lifetime (in CC#N): 4 ns
- fluorescence lifetime (in CCCCCC): 3.7 ns
SMILES: C/C=C/c1ccc(OC)c(OC)c1

- fluorescence lifetime (in C1CCOC1): 7 ns
SMILES: CN(C)c1ccc(C(=Cc2ccc(C=O)cc2)c2ccc(N(C)C)cc2)cc1

- fluorescence lifetime (in CCCO): 0.15 ns
SMILES: CCOC(=O)c1ccc2c(c1)[nH]c1c3ccc(C(=O)OCC)cc3[se]c21

- fluorescence lifetime (in ClCCl): 7.4 ns
SMILES: COc1ccc(C2=CC(c3cc(OC)cc(OC)c3)=[O+][B-](F)(F)O2)cc1

- fluorescence lifetime (in CO): 29 ns
SMILES: Oc1cc2ccc3cc(O)cc4ccc(c1)c2c34

- fluorescence lifetime (in CC#N): 4.92 ns
- fluorescence lifetime (in ClCCl): 4.98 ns
SMILES: COc1ccc2nc(/N=N/c3ccc(N(C)C)cc3)sc2c1

- fluorescence lifetime (in O): 7.69 ns
SMILES: Nc1ccc2ccc(O)cc2c1
